Data set [1] has as its target T1, PXR (NR1I2) (Homo sapiens, UniProt O75469).
T1 sequence (O75469 whole entry): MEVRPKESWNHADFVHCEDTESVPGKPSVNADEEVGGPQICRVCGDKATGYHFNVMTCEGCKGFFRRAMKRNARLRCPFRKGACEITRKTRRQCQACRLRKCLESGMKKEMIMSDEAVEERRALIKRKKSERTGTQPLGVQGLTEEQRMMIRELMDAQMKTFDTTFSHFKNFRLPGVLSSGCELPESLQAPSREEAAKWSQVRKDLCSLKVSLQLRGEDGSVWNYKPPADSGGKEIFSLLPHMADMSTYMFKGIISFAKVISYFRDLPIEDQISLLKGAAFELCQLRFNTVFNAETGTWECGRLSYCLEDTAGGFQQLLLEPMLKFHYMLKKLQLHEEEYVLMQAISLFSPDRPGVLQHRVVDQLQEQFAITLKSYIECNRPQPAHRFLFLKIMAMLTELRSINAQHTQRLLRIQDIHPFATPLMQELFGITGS
Kind of data set: […] at PXR LBD (unknown origin) expressed in HEK293 cells […] at 5 uM after 16 hrs by luciferase reporter gene assay relative to rifampicin. The class given is ADME, cell-based. The conditions noted are these: HEK293 cells expressing PXR LBD, read-out: Efficacy.

Data set [2] addresses T1, PXR (NR1I2). Kind of data set: […] at PXR LBD (unknown origin) expressed in HEK293 cells […] at 1 uM after 16 hrs by luciferase reporter gene assay relative to rifampicin. The class given is ADME, cell-based. As to conditions: HEK293 cells expressing PXR LBD, read-out: Efficacy.

Take `CC[C@H](NC(=O)c1cc(-c2sc(C(=O)N[C@H]3C[C@H](C(=O)O)C3)nc2CC2CCCCC2)cc(C2(C)CC2)c1)C(F)(F)F`: the Emax at 16 h, 5 µM in data set [1] stood at 71%. Besides, the Emax at 16 h, 1 µM in data set [2] was 32%.

On to `C[C@H](NS(=O)(=O)c1ccc(-c2sc(C(=O)N3CC4(C3)CS(=O)(=O)C4)nc2CC2CCC2)c(Cl)c1Cl)C(F)(F)F`, for which the Emax at 16 h, 5 µM in data set [1] worked out at 106%. Moreover, in data set [2], the Emax at 16 h, 1 µM is 56%.

Turning to `C[C@H](NS(=O)(=O)c1ccc(-c2sc(C(=O)NCC(C)(C)O)nc2Cc2ccc(F)cc2)c(Cl)c1Cl)C(F)(F)F`, in data set [1], the Emax at 16 h, 5 µM turned out to be 134%. Also, the Emax at 16 h, 1 µM in data set [2] is 80%.

With `C[C@H](NC(=O)c1cc(-c2sc(C(=O)N[C@H]3C[C@H](C(=O)O)C3)nc2CC2CCCCC2)cc(C2(C#N)CC2)c1)C(F)(F)F`, the Emax at 16 h, 5 µM in data set [1] is 7.5%. Further, in data set [2], the Emax at 16 h, 1 µM turned out to be 3.1%.

For the compound `C[C@H](NS(=O)(=O)c1cc(-c2sc(C(=O)N[C@H]3C[C@H](C(=O)O)C3)nc2CC2CCCCC2)cc(C(C)(C)C)c1)C(F)(F)F`, the Emax at 16 h, 5 µM in data set [1] was 159%. Also, in data set [2], the Emax at 16 h, 1 µM stood at 157%.

As to `CC(C)(CCF)NS(=O)(=O)c1ccc(-c2sc(C(=O)N[C@H]3C[C@H](C(=O)O)C3)nc2CC2CCCCC2)c2ccccc12`, the Emax at 16 h, 5 µM in data set [1] came to 117%. Further, the Emax at 16 h, 1 µM in data set [2] turned out to be 91%.

`CC(C)(C)c1cc(-c2sc(C(=O)N[C@H]3C[C@H](C(=O)O)C3)nc2CC2CCCCC2)cc(C(O)(C(F)(F)F)C(F)(F)F)c1`: the Emax at 16 h, 5 µM in data set [1] was determined as 89%. In addition, the Emax at 16 h, 1 µM in data set [2] was 41%.

For `CC(C)(C)NS(=O)(=O)c1ccc(-c2sc(C(=O)NCC3CS(=O)(=O)C3)nc2CC2CCCCC2)c2ccccc12`, the Emax at 16 h, 5 µM in data set [1] was determined as 147%. Besides, the Emax at 16 h, 1 µM in data set [2] was determined as 140%.

For `C[C@H](NS(=O)(=O)c1ccc(-c2sc(C(=O)N[C@H]3C[C@H](C(=O)O)C3)nc2CC2CCC2)c2ccccc12)C(F)(F)F`, in data set [1], the Emax at 16 h, 5 µM was found to be 118%. Besides, the Emax at 16 h, 1 µM in data set [2] stood at 40%.

For `CC(C)(C)NS(=O)(=O)c1ccc(-c2sc(C(=O)NC3CCS(=O)(=O)CC3)nc2C(C)(C)C)c2ccccc12`, the Emax at 16 h, 5 µM in data set [1] stood at 112%. Further, the Emax at 16 h, 1 µM in data set [2] amounted to 66%.

With `CC(C)(CCO)NS(=O)(=O)c1ccc(-c2sc(C(=O)N[C@H]3C[C@H](C(=O)O)C3)nc2CC2CCCCC2)c2ccccc12`, in data set [1], the Emax at 16 h, 5 µM is 53%. For the same compound, the Emax at 16 h, 1 µM in data set [2] is 15%.

As for `C[C@H](NS(=O)(=O)c1ccc(-c2sc(C(=O)NCC(C)(C)O)nc2CC2CC(F)(F)C2)c2ccccc12)C(F)(F)F`, the Emax at 16 h, 5 µM in data set [1] was 80%. Besides, in data set [2], the Emax at 16 h, 1 µM came to 71%.

With `CC(C)(C)NS(=O)(=O)c1ccc(-c2sc(C(=O)NCC(C)(C)C(N)=O)nc2CC2CCCCC2)c2ccccc12`, the Emax at 16 h, 5 µM in data set [1] was 142%. For the same compound, the Emax at 16 h, 1 µM in data set [2] is 110%.

For `CC(C)(O)CNC(=O)c1nc(CC2CCCCC2)c(-c2ccc(S(=O)(=O)NC(C)(C)C)c3ccccc23)s1`, the Emax at 16 h, 5 µM in data set [1] turned out to be 116%. For the same compound, the Emax at 16 h, 1 µM in data set [2] was determined as 138%.

Consider `C[C@H](NC(=O)c1cc(-c2sc(C(=O)N[C@H]3C[C@H](C(=O)O)C3)nc2CC2CCCCC2)cc(C(C)(C)C)c1)C(F)(F)F`, for which the Emax at 16 h, 5 µM in data set [1] came to 59%. The Emax at 16 h, 1 µM in data set [2] was 29%.

As to `CCC(C)(C)NS(=O)(=O)c1ccc(-c2sc(C(=O)N[C@H]3C[C@H](C(=O)O)C3)nc2CC2CCCCC2)c2ccccc12`, the Emax at 16 h, 5 µM in data set [1] was 158%. Further, the Emax at 16 h, 1 µM in data set [2] is 116%.

These data come from ChEMBL document CHEMBL4118122, “Identification and biological evaluation of thiazole-based inverse agonists of RORγt” (Bioorg Med Chem Lett, 2018).
